From US12274683B2 (Bayer HealthCare LLC, priority 2019, dated 2025)

Test system: inflammation/edema induced by carrageenan-injection into the footpads of Sprague Dawley (SD) rats
Assay: Carrageenan-induced inflammation rat paw test (Example 3)
Conditions: at necropsy about 24 h post-carrageenan, N=10, SE in line below
Procedure: Efficacy evaluation was based on gait analysis, von Frey absolute thresholds and ankle caliper differentials recorded over 24 h after initial carrageenan injection, and paw differential weights following euthanasia of the test subjects.
Experimental Design. Male Sprague Dawley (Envigo RMS, Inc., Indianapolis) were weighed on Day 1 (mean 285 g) and randomized by body weight into treatment groups. On Day 0-1, animals in Groups 3-11 were dosed with topical compounds on 2-minute intervals according to the dose schedules in Table 10. […] Gait and von Frey analyses were conducted at time points of 2 h, 4 h, 6 h, 8 h, and 24 h post-carrageenan injection; ankle caliper measurements were taken immediately following gait assessment. […]
Gait Analysis. […] Gait was scored visually as follows (descriptions refer to diseased leg): • 0=Normal, approximately equal ink staining to normal paw. • 1=Slight limp/pain. […]
Testing began with three applications of the 4.31 hair. […] Responses were recorded as either a 0 (no response) or a 1 (response). […]
Testing was done on hind (heel) portions of the hind paw. Testers monitored the animals for hyper-responding or freezing, in which case animals were left alone until calm.

COc1ccc2cc([C@H](C)C(=O)O)ccc2c1 [Naproxen (oral), Naproxen]
Paw Weight Difference (R − L): ‡0.410 g | Paw Weight Difference (R − L) (listed as oral Naproxen): significantly reduced
